Measured values from patent US10351546B2, “Pyridin-3-yl acetic acid derivatives as inhibitors of human immunodeficiency virus replication” (priority 2015, dated 2019).

These molecules were tested on NL-RLuc virus (assay: Inhibition of HIV replication (NL-RLuc luciferase reporter virus in MT-2 cells)). Conditions: Human immunodeficiency virus 1, MT2, 120 h, read-out: Activity.
Format: cell-based
Text: Inhibition of HIV replication: A recombinant NL-RLuc proviral clone was constructed in which a section of the nef gene form NL4-3 was replaced with the Renilla Luciferase gene. This virus is fully infectious and can undergo multiple cycles of replication in cell culture. In addition, the luciferous reporter provides a simple and easy method for quantitating the extent of virus growth and consequently, the antiviral activity of test compounds. The plasmid pNLRLuc contains the proviral NL-Rluc DNA cloned into pUC18 at the PvuII site. The NL-RLuc virus was prepared by transfection of 293T cells with the plasmid pNLRLuc. Transfections were performed using the LipofectAMINE PLUS kit form Invitrogen (Carlsbad, Calif.) according to the manufacturer and the virus generated was titered in MT-2 cells. For susceptibility analyses, the titrated virus was used to infect MT-2 cells in the presence of compound, and after 5 days of incubation, cells were processed and quantitated for virus growth by the amount of expressed luciferase. Assay media was RPMI 1640 supplemented with 10% heat inactivated fetal bovine serum (FBS), 100 units/ml penicillin G/100 units/ml streptomycin, 10 mM HEPES buffer pH 7.55 and 2 mM L-glutamine. The results form at least 2 experiments were used to calculate the EC50 values. Luciferase was quantitated using the Dual Luciferase kit form Promega (Madison, Wis.). Susceptibility of viruses to compounds was determined by incubation in the presence of serial dilutions of the compound. The 50% effective concentration (EC50) was calculated by using the exponential form of the median effect equation where (Fa)=1/[1+(ED50/drug conc.)^m](Johnson V A, Byington R T. Infectivity Assay. In Techniques in HIV Research. ed. Aldovini A, Walker B D. 71-76. New York: Stockton Press. 1990). Activity equal to A refers to a compound having an EC50≤100 nM, while B and C denote compounds having an EC50 between 100 nM and 1 uM (B) or >1 uM (C).

Row | Compound | EC50 [µM]
1 | Cc1nc(O)c(-c2ccc(OCCc3ccc(F)cc3)cc2)c(N2CCC(C)(C)CC2)c1[C@H](OC(C)(C)C)C(=O)O (single isomer, unassigned) [Example 50] | < 0.1
2 | COc1nc(C)c([C@H](OC(C)(C)C)C(=O)O)c(N2CCC(C)(C)CC2)c1-c1ccc(OCCc2ccc(F)cc2)cc1 (single isomer, unassigned) [Example 51] | < 0.1
3 | Cc1nc(Cl)c(-c2ccc(OCCc3ccc(F)cc3)cc2)c(N2CCC(C)(C)CC2)c1[C@H](OC(C)(C)C)C(=O)O (single isomer, unassigned) [Example 52] | < 0.1
4 | Cc1cc(F)ccc1CN1CCc2cc(-c3c(C(C)N(C)CC4CCOCC4)nc(C)c([C@H](OC(C)(C)C)C(=O)O)c3N3CCC(C)(C)CC3)ccc2C1 (single isomer, unassigned) [Example 150] | < 0.1
5 | Cc1cc(F)ccc1CN1CCc2cc(-c3c(C(C)O)nc(C)c([C@H](OC(C)(C)C)C(=O)O)c3N3CCC(C)(C)CC3)ccc2C1 (single isomer, unassigned) [Example 152] | < 0.1
6 | Cc1nc(CO)c([C@H](OC(C)(C)C)C(=O)O)c(N2CCC(C)(C)CC2)c1-c1ccc(OCCc2ccc(F)cc2)cc1 [Example 1, (S)-2-(tert-Butoxy)-2-(4-(4,4-dimethylpiperidin-1-yl)-5-(4-(4-fluorophenethoxy)phenyl)-2-(hydroxymethyl)-6-methylpyridin-3-yl)acetic acid] | < 0.1
7 | Cc1nc(CO)c(-c2ccc(OCCc3ccc(F)cc3)cc2)c(N2CCC(C)(C)CC2)c1[C@H](OC(C)(C)C)C(=O)O [Example 2, (S)-2-(tert-Butoxy)-2-(4-(4,4-dimethylpiperidin-1-yl)-5-(4-(4-fluorophenethoxy)phenyl)-6-(hydroxymethyl)-2-methylpyridin-3-yl)acetic acid] | < 0.1
8 | COCc1nc(C)c([C@H](OC(C)(C)C)C(=O)O)c(N2CCC(C)(C)CC2)c1-c1ccc(OCCc2ccc(F)cc2)cc1 [Example 3, (S)-2-(tert-Butoxy)-2-(4-(4,4-dimethylpiperidin-1-yl)-5-(4-(4-fluorophenethoxy)phenyl)-6-(methoxymethyl)-2-methylpyridin-3-yl)acetic acid] | < 0.1
9 | Cc1nc(C(F)F)c(-c2ccc(OCCc3ccc(F)cc3)cc2)c(N2CCC(C)(C)CC2)c1[C@H](OC(C)(C)C)C(=O)O [Example 4, (S)-2-(tert-Butoxy)-2-(6-(difluoromethyl)-4-(4,4-dimethylpiperidin-1-yl)-5-(4-(4-fluorophenethoxy)phenyl)-2-methylpyridin-3-yl)acetic acid] | < 0.1
10 | Cc1nc(CF)c(-c2ccc(OCCc3ccc(F)cc3)cc2)c(N2CCC(C)(C)CC2)c1[C@H](OC(C)(C)C)C(=O)O [Example 5, (S)-2-(tert-Butoxy)-2-(4-(4,4-dimethylpiperidin-1-yl)-6-(fluoromethyl)-5-(4-(4-fluorophenethoxy)phenyl)-2-methylpyridin-3-yl)acetic acid] | < 0.1
11 | Cc1nc(COc2ccc(Cl)cc2)c(-c2ccc(OCCc3ccc(F)cc3)cc2)c(N2CCC(C)(C)CC2)c1[C@H](OC(C)(C)C)C(=O)O [Example 6, (S)-2-(tert-butoxy)-2-(6-((4-chlorophenoxy)methyl)-4-(4,4-dimethylpiperidin-1-yl)-5-(4-(4-fluorophenethoxy)phenyl)-2-methylpyridin-3-yl)acetic acid] | < 0.1
12 | Cc1nc(COCC2COC2)c(-c2ccc(OCCc3ccc(F)cc3)cc2)c(N2CCC(C)(C)CC2)c1[C@H](OC(C)(C)C)C(=O)O [Example 7, (S)-2-(tert-Butoxy)-2-(4-(4,4-dimethylpiperidin-1-yl)-5-(4-(4-fluorophenethoxy)phenyl)-2-methyl-6-((oxetan-3-ylmethoxy)methyl)pyridin-3-yl)acetic acid] | < 0.1
13 | CCOCc1nc(C)c([C@H](OC(C)(C)C)C(=O)O)c(N2CCC(C)(C)CC2)c1-c1ccc(OCCc2ccc(F)cc2)cc1 [Example 8, (S)-2-(tert-Butoxy)-2-(4-(4,4-dimethylpiperidin-1-yl)-6-(ethoxymethyl)-5-(4-(4-fluorophenethoxy)phenyl)-2-methylpyridin-3-yl)acetic acid] | < 0.1
14 | Cc1nc(COC(C)C)c(-c2ccc(OCCc3ccc(F)cc3)cc2)c(N2CCC(C)(C)CC2)c1[C@H](OC(C)(C)C)C(=O)O [Example 9, (S)-2-(tert-Butoxy)-2-(4-(4,4-dimethylpiperidin-1-yl)-5-(4-(4-fluorophenethoxy)phenyl)-6-(isopropoxymethyl)-2-methylpyridin-3-yl)acetic acid] | < 0.1
15 | CCOCCOCc1nc(C)c([C@H](OC(C)(C)C)C(=O)O)c(N2CCC(C)(C)CC2)c1-c1ccc(OCCc2ccc(F)cc2)cc1 [Example 10, (S)-2-(tert-Butoxy)-2-(4-(4,4-dimethylpiperidin-1-yl)-6-((2-ethoxyethoxy)methyl)-5-(4-(4-fluorophenethoxy)phenyl)-2-methylpyridin-3-yl)acetic acid] | < 0.1
16 | Cc1nc(COC2CCCC2)c(-c2ccc(OCCc3ccc(F)cc3)cc2)c(N2CCC(C)(C)CC2)c1[C@H](OC(C)(C)C)C(=O)O [Example 11, (S)-2-(tert-Butoxy)-2-(6-((cyclopentyloxy)methyl)-4-(4,4-dimethylpiperidin-1-yl)-5-(4-(4-fluorophenethoxy)phenyl)-2-methylpyridin-3-yl)acetic acid] | < 0.1
17 | Cc1nc(COC2CCOCC2)c(-c2ccc(OCCc3ccc(F)cc3)cc2)c(N2CCC(C)(C)CC2)c1[C@H](OC(C)(C)C)C(=O)O [Example 12, (S)-2-(tert-Butoxy)-2-(4-(4,4-dimethylpiperidin-1-yl)-5-(4-(4-fluorophenethoxy)phenyl)-2-methyl-6-(((tetrahydro-2H-pyran-4-yl)oxy)methyl)pyridin-3-yl)acetic acid] | < 0.1
18 | Cc1nc(COCC2CCCC2)c(-c2ccc(OCCc3ccc(F)cc3)cc2)c(N2CCC(C)(C)CC2)c1[C@H](OC(C)(C)C)C(=O)O [Example 13, (S)-2-(tert-Butoxy)-2-(6-((cyclopentylmethoxy)methyl)-4-(4,4-dimethylpiperidin-1-yl)-5-(4-(4-fluorophenethoxy)phenyl)-2-methylpyridin-3-yl)acetic acid] | < 0.1
19 | Cc1nc(COCc2ncco2)c(-c2ccc(OCCc3ccc(F)cc3)cc2)c(N2CCC(C)(C)CC2)c1[C@H](OC(C)(C)C)C(=O)O [Example 14, (S)-2-(tert-Butoxy)-2-(4-(4,4-dimethylpiperidin-1-yl)-5-(4-(4-fluorophenethoxy)phenyl)-2-methyl-6-((oxazol-2-ylmethoxy)methyl)pyridin-3-yl)acetic acid] | < 0.1
20 | Cc1nc(COc2cccc(Cl)c2)c(-c2ccc(OCCc3ccc(F)cc3)cc2)c(N2CCC(C)(C)CC2)c1[C@H](OC(C)(C)C)C(=O)O [Example 15, (S)-2-(tert-Butoxy)-2-(6-((3-chlorophenoxy)methyl)-4-(4,4-dimethylpiperidin-1-yl)-5-(4-(4-fluorophenethoxy)phenyl)-2-methylpyridin-3-yl)acetic acid] | < 0.1

Same assay, conditions: Human immunodeficiency virus 1, MT2, 120 h, read-out: EC50 μM

Row | Compound | EC50 [µM]
21 | Cc1nc(CO)c([C@H](OC(C)(C)C)C(=O)O)c(N2CCC(C)(C)CC2)c1-c1ccc(OCCc2ccc(F)cc2)cc1 [Example 1, (S)-2-(tert-Butoxy)-2-(4-(4,4-dimethylpiperidin-1-yl)-5-(4-(4-fluorophenethoxy)phenyl)-2-(hydroxymethyl)-6-methylpyridin-3-yl)acetic acid] | 0.003
22 | Cc1nc(COc2ccc(Cl)cc2)c(-c2ccc(OCCc3ccc(F)cc3)cc2)c(N2CCC(C)(C)CC2)c1[C@H](OC(C)(C)C)C(=O)O [Example 6, (S)-2-(tert-butoxy)-2-(6-((4-chlorophenoxy)methyl)-4-(4,4-dimethylpiperidin-1-yl)-5-(4-(4-fluorophenethoxy)phenyl)-2-methylpyridin-3-yl)acetic acid] | 0.02
23 | Cc1nc(COc2cccc(Cl)c2)c(-c2ccc(OCCc3ccc(F)cc3)cc2)c(N2CCC(C)(C)CC2)c1[C@H](OC(C)(C)C)C(=O)O [Example 15, (S)-2-(tert-Butoxy)-2-(6-((3-chlorophenoxy)methyl)-4-(4,4-dimethylpiperidin-1-yl)-5-(4-(4-fluorophenethoxy)phenyl)-2-methylpyridin-3-yl)acetic acid] | 0.051

Same assay, conditions: read-out: Activity; NL-RLuc virus in MT-2 cells, 5 days of incubation, luciferase readout

Row | Compound | EC50 [µM]
24 | Cc1cc(F)ccc1CN1CCc2cc(-c3c(C(C)N(C)CC4CCOCC4)nc(C)c([C@H](OC(C)(C)C)C(=O)O)c3N3CCC(C)(C)CC3)ccc2C1 (single isomer, unassigned) [Example 151] | < 0.1
25 | Cc1cc(F)ccc1CN1CCc2cc(-c3c(C(C)O)nc(C)c([C@H](OC(C)(C)C)C(=O)O)c3N3CCC(C)(C)CC3)ccc2C1 (single isomer, unassigned) [Example 153] | < 0.1
